# Measurements taken from patent publication US8759558B2, “Sulphur containing lipids for use as food supplement or as medicament” (Pronova Biopharma Norge AS, priority 2008, dated 2014).
# Legend:
# PPARα = target: T1, PPARα (Homo sapiens, UniProt Q07869); test: PPARα activation in-vitro, mammalian-one-hybrid (M1H) luciferase reporter assay, concentration response; type: cell-based; conditions: GAL4-DBD-PPARα-LBD, transiently transfected HEK293 cells; for PPARα Efficacy: positive control GW7647
# T1 construct: expressed in transfected cells; host or cells: HEK293 cells, transiently transfected
# T1 sequence (Q07869 239-466 limits assumed): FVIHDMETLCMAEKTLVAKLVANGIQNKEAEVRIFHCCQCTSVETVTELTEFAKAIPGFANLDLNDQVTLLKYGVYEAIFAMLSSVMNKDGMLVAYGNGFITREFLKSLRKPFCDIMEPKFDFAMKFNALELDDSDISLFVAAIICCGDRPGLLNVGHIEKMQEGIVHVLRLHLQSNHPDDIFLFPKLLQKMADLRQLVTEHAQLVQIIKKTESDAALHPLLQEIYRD
# Experimental: The assay was carried out in-vitro using mammalian-one-hybrid assays (M1H) comprising GAL4-DNA binding domain-PPARα-LBD fusion constructs in conjunction with 5×GAL4-sites driven Photinus pyralis luciferase reporter construct in transiently transfected HEK293 cells.
# Wistar rat = Wistar rat model; Willumsen et al 1997; cited from earlier work
SMILES,EC50 (PPARα),PPARα Efficacy (PPARα),plasma triglycerides (Wistar rat)
"CC/C=C\C/C=C\C/C=C\C/C=C\C/C=C\CCCCSC(CC)(CC)C(=O)O [Compound (12), 2-ethyl-2-((5Z,8Z,11Z,14Z,17Z)-icosa-5,8,11,14,17-pentaenylthio)butanoic acid]",286 nM,84%,–
CC(C)(Sc1ccc(CCN(CCCCC2CCCCC2)C(=O)NC2CCCCC2)cc1)C(=O)O [GW7647],–,100%,–
"CC/C=C\C/C=C\C/C=C\C/C=C\CCSCC(=O)OC [Methyl (all-Z)-3-thia-6,9,12,15-octadecatetraenoate]",–,–,lowered plasma triglycerides to a similar extent
